The numbers were not newly measured in patent US12029798B2, “Pre-targeting strategies for molecular imaging and/or radioimmunotherapy” (UNIVERSITY OF PITTSBURGH—OF THE COMMONWEALTH SYSTEM OF …, priority 2016, dated 2024), which cites them from elsewhere.

The conditions of this data set: reaction with azides.

On to oxa-dibenzocyclooctynes [ODIBO], for which the cycloaddition rate is 43 M^−1S^−1.
